The source of these data is patent US9408891B2, “Methods of using gelsolin to treat or prevent bacterial sepsis” (priority 2003, dated 2016).

“Also recorded” adds a separate entry of the source.

Assay [1] has as its target T1, recombinant human gelsolin (rhGLS) (Homo sapiens, UniProt P06396).
T1 construct: purchased Biogen IDEC, Inc., Cambridge, Mass; host or cells: E. coli
Description: Actin filament severing activity of purified gelsolin (pyrene F-actin depolymerization). The class given is biochemical. As for the experimental part: To determine gelsolin's severing activity, rates of fluorescence decrease were evaluated during depolymerization. Monomeric G-actin was prepared from an acetone powder of rabbit skeletal muscle according to previously published methods (Spudich et al., J. Biol. Chem […]). The non-polymerizing solution contained 2 mM TRIS, 0.2 mM CaCl2, 0.5 mM ATP (adenosine triphosphate), 0.2 mM DTT (dithiothreitol) pH 7.4. Actin was polymerized by adding 150 mM KCl and 2 mM MgCl2 to the G-actin solutions and incubating for 1 hour at room temperature.
For F-actin severing assays, in general, a small volume (typically 5 μl) of the gelsolin composition is added to a similar volume of pyrene-labeled F-actin at a concentration adjusted to provide an actin:gelsolin ratio of approximately 10:1 (typically 1 μM gelsolin and 10 μM actin). This mixture is the diluted to 0.5 μM in a larger volume of F-actin buffer, and the filament severing efficiency is calculated from the initial slope of the fluorescence change. This reflects the rate of depolymerization that, in turn, is proportional to the number of cuts made by gelsolin. The LPS/gelsolin reaction can be done under any ionic condition, and the addition to F-actin requires the presence of […] Ca^2+ to activate the gelsolin. […] The actin nucleation reaction is similar except that in the latter case, the gelsolin/LPS mixture is added to a more dilute solution of G-actin (typically, 1 or 2 μM) in low ionic strength buffer followed immediately by addition of 150 mM KCI and 2 mM MgCl2 to initiate polymerization.
As shown, recombinant human gelsolin (rhGLS) (FIG. 4A) and blood serum (FIG. 4B) severing activity was measured in 0.4 μM pyrene-labeled F-actin samples (polymerized with 50% pyrene-labeled G-actin), after adding gelsolin (16 nM)/serum (2.5 μl), or their combination with one of the following: LPS (from different species), PIP2 (phosphatidyl-inositol-4,5-bisphosphate), LPA (lysophosphatidic acid), lipid A (the LPS derivative lacking polysaccharide) or PS (phosphatidylserine). The fluorescence intensity of F-pyrene actin was then monitored for 10 minutes, and the severing activity was calculated based on decreasing fluorescence. Severing activity was determined from a decrease in rate of fluorescence during depolymerization, and the depolymerization rate was calculated from the slope of the early decrease in fluorescence.

The subject of another assay is human platelets. Nature of the assay: Collagen-induced aggregation of gel-filtered platelets. The class given is cell-based. The conditions noted are these: collagen 10 μg/ml. As for the experimental part:
To isolate human platelets, blood from healthy volunteers was collected in acid-citrate dextrose. Platelet-rich plasma obtained after centrifugation (15 minutes, 110×g) at room temperature, was supplemented with apyrase (0.5 U/ml) (Sigma-Aldrich) to degrade excess nucleotides. Platelets were sedimented by centrifugation (10 minutes, 1000×g), suspended in buffer A (139 mM NaCl, 2.8 mM KCl, 0.8 mM MgCl2, 0.8 mM KH2PO4, 8.9 mM NaHCO3, 10 mM HEPES, 5.6 mM glucose, 0.3% albumin, pH 7.35) and filtered on a 50 ml column of Sepharose 2B to obtain gel-filtered platelets (GFP).
Platelet aggregation was initiated by adding collagen (10 μg/ml) (Chrono-Log Corp., Havertown, Pa.). Platelet aggregation was monitored using a Chronolog Lumi-Aggregometer (Chrono-Log Corp.). Changes in light transmission were recorded for 10 minutes, using a PowerLab/200 instrument and MacLab Chart program Version 3.2. When required before activation, the platelet suspension was reacted with LPS, or LPS-preincubated with the SEQ ID No:1 peptide (QRLFQVKGRR).

Assay [2] addresses T1, recombinant human gelsolin (rhGLS). Nature of the assay: Change of gelsolin OD at 280 nm after adding lipids. The class given is binding. The conditions noted are these: OD 280 nm. On the procedure: (§1) Therefore, to determine changes of gelsolin OD at 280 nm, different amounts of LPS, LPA and PS were added to recombinant human gelsolin (rhGLS) solutions and OD emission spectra were recorded using spectrophotometer Genesys 6 (Thermo-Spectronic, USA).

The target of assay [3] is T2, PBP10 (PIP2-binding site of gelsolin) (Homo sapiens, UniProt P06396).
T2 construct: made in house; host or cells: solid phase peptide synthesis
Nature of the assay: Rhodamine-B fluorescence change of gelsolin peptide PBP10 after adding lipids. As to conditions: 2 μM peptide, buffer A pH 7.0, 15 min. As for the experimental part: as §1
Interaction of LPS and gelsolin was examined using rhodamine B- and pyrene-labeled SEQ ID No:1 (QRLFQVKGRR). The effect of LPS on gelsolin was determined in terms of the rhodamine-B fluorescent changes of PBP10 peptide in the presence of different lipids (FIG. 1C); and the fluorescence emission spectra of pyrene-labeled SEQ ID No:1 (2 μM) in the presence of LPS from Escherichia coli (1.2 μM), PIP2 (0.82 μM) and LPA (0.82 μM) (FIG. 1D) The results using the pyrene-derivatized gelsolin peptide confirmed the LPS induced clustering of the peptide with resulting excimer fluorescence of the pyrene group, which was evident as a large increase in fluorescence emission at 480 nm.
The tested gelsolin concentration was 50 nM; LTA ranged from 0-50 μM; Pyrene-F-actin was 0.3 μM. Recording changes in fluorescently-labeled (rhodamine B-labeled) gelsolin peptide PBP10 (10 μM), indicates a specific interaction between gelsolin and LTA.

T1 sequence (P06396 28-782): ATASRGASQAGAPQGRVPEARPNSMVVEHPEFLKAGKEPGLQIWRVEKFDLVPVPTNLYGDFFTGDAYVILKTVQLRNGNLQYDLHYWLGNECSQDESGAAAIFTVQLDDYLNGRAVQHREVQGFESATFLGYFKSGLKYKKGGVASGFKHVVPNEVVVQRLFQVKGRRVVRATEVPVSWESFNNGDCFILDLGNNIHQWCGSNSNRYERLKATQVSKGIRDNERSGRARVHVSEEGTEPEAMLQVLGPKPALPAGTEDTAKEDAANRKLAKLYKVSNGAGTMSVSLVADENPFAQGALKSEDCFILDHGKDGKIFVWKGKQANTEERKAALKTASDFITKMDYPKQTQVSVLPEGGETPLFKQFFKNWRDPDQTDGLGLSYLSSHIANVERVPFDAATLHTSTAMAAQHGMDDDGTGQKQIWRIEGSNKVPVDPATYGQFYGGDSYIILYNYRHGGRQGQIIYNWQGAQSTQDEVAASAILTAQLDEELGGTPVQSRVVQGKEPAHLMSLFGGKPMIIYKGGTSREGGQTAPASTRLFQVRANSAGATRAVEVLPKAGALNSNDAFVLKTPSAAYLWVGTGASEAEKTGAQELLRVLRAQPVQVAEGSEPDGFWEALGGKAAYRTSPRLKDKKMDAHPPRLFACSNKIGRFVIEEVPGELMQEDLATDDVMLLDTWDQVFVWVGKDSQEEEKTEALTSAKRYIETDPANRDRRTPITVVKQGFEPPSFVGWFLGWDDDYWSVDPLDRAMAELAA

For the substance lipopolysaccharide [LPS], in assay [1] (0.02 μM LPS (100 ng/ml), 0.016 μM gelsolin), the “inhibition of severing activity of gelsolin” value is given as 50%. Besides, in assay [1] (0.1 μM LPS, 0.016 μM gelsolin), the “inhibition of severing capability of gelsolin” value amounted to 90%. Moreover, the “inhibition of severing activity of purified human gelsolin” value in assay [1] (LPS concentration not stated at this place) turned out to be 50%. The “inhibitory effect on severing activity of purified gelsolin” value in assay [1] (molar basis comparison) was “more potent inhibitor than either LPA or P1P2; also recorded: more potent inhibitor; also recorded: more potent inhibitor of gelsolin actin severing capability than either LPA or PIP2”. Further, in the assay on human platelets, the “effect of LPS alone on collagen-induced platelet aggregation and secretion” value is on record as “strongly inhibited”. The “maximal decrease in UV absorbance of intact gelsolin” value in assay [2] is recorded as roughly 35%. Moreover, the “fluorescence quenching / change of rhodamine-B peptide” value in assay [3] was “induced identical concentration-dependent fluorescence quenching”.
